# Test results: publication PMC6179059, “Pharmacophore-based discovery of 2-(phenylamino)aceto-hydrazides as potent eosinophil peroxidase (EPO) inhibitors” (Journal of Enzyme Inhibition and Medicinal Chemistry, 2018)
# Read-outs that look alike come from different tables or passages of the source.
# Tests used:
# [1] = molecular target: T1, eosinophil peroxidase (EPO) (Homo sapiens, UniProt P11678); assay: Inhibition of EPO-mediated bromination, monochlorodimedone (MCD) assay; type: biochemical
# T1 construct: Eosinophil peroxidase was purified from human white blood cells to a purity index (A413/A280) of at least 1.0; from tissue; host or cells: human white blood cells
# Procedure: Eosinophil peroxidase was purified from human white blood cells to a purity index (A413/A280) of at least 1.0 as described by Olsen and Little[27]. Its concentration was calculated using ε413 nm 110 000 M^−1 cm−1[28] Hydrogen peroxide, obtained as a 30% solution from Sigma Chemical Co., was diluted and the concentration determined by the absorbance measurement at 240 nm where the extinction coefficient is 39.4 M^−1 cm−1[29]. The other chemicals were also purchased from Sigma Chemical Co. at the highest grade available.
# Halogenation activity was measured spectrophotometrically (Hitachi U-3000) using the monochlorodimedone (MCD) assay. MCD (100 µM) was dissolved in 100 mM phosphate buffer, pH 7.0 containing either bromide (100 mM) or chloride (100 mM) and 20 nM EPO. Upon addition of 100 µM H2O2 MCD was converted into dibromodimedone. […] If necessary the inhibitor stock solutions were prepared in dimethylsulfoxide (DMSO) and stored in dark flasks. Dilution was performed with 100 mM phosphate buffer, pH 7.0, to a final DMSO concentration of maximal 2% (v/v) in all assays. […] The inhibitor concentration that inhibited eosinophil peroxidase-dependent oxidation of MCD by 50% (IC50) was determined by fitting a rectangular hyperbola to the dose-response curve using nonlinear regression (see supplemental information A). All measurements were made in triplicate.
# The 277 selected compounds were tested for inhibition. Monochlorodimedon (MCD) was used to monitor inhibition of EPO-mediated bromination. It turned out that certain compounds such as hydrazides are able to inhibit the EPO. Table 3 lists the IC50 values of four different 4-chlorophenyl derivatives of hydrazides and acetic acid. […] It is apparent that a free terminal amino group, which could act as an […] is essential for a strong inhibition, additional to steric and/or electrochemical properties of these compounds.
# Supplementary Figure S1: IC 50 plots of inhibition of EPO halogenation activity. Figure A- […]
# 20 nM EPO and 200 µM hydrogen peroxide. Reactions were carried out in 100 mM phosphate buffer, pH 7, at 25 °C, Data are means of triplicate experiments. The inhibitory effect of each inhibitor was measured by determining the concentration at which it inhibited oxidation of MCD by 50% (IC50).
# EPO Compound I = tested on: T2, EPO Compound I; assay: Sequential-mixing stopped-flow: reaction of EPO Compound I with inhibitors; type: biochemical, human; conditions: for apparent second-order rate constant for Compound I reduction (k3): 100 mM phosphate buffer, pH 7.0, 25 °C; for type of inhibition (reversible / irreversible): concluded from pre-steady-state kinetics
# T2 construct: Eosinophil peroxidase was purified from human white blood cells to a purity index (A413/A280) of at least 1.0; from tissue; host or cells: human white blood cells
# Procedure: (§1) The sequential stopped-flow apparatus (model SX-18 MV) and the associated computer system were from Applied Photophysics (UK). Because of the inherent instability of Compound I of EPO, the sequential stopped-flow (multi-mixing) technique was used for determination of rate of the reaction of Compound I with different inhibitors. Similar to bovine LPO, human EPO Compound I could be formed with equimolar concentrations of H2O2. In a typical experiment, 2 µM EPO was premixed with 2 µM H2O2 in the aging loop. After 100 ms of delay, the formed Compound I was mixed with increasing concentrations of different inhibitors. Formation and reduction of Compound II by compound 10 was investigated by following the biphasic time trace at 423 nm, where the transition of Compound I to Compound II and further to the […] can be followed. The kinetic traces were fitted using the double-exponential equation of the Applied Photophysics software. At least three determinations (2000 data points) of pseudo-first-order rate constants (kobs) from the first phase of the reaction were performed for each substrate concentration and the mean value was used in the calculation of the second-order rate constants, which were calculated from the slope of the line defined by a plot of kobs versus substrate concentration. Compound 11 was investigated by following the biphasic time traces at 430 nm the maximum absorbance of Compound II. All reactions were followed both at single wavelengths as well as with a diode-array detector. Polychromatic data were analysed with Pro-Kineticist from Applied Photophysics. The program simultaneously fits the kinetic traces at all wavelengths to the proposed reaction mechanism and simulates the spectra of all reactant, product and intermediate species as well as their time-dependent distribution on the reaction coordinate. All measurements were done in 100 mM phosphate buffer, pH 7.0, at 25 °C with a minimum of three repeats.
# In order to determine the mechanism of inhibition of EPO with aceto-hydrazide, acetic acid and thioacetic acid derivatives, a pre-steady-state kinetic study was performed with sequential-mixing stopped-flow spectroscopy. Three redox intermediates are relevant in the enzymology of EPO, namely Compound I, Compound II and Compound III (Figure 3). […] Alternatively, Compound I can also be reduced back by two one-electron reduction steps via Compound II (k3 and k4), Figure 3). The ferric enzyme can be reduced to ferrous enzyme (k5). Compound III can be formed either from ferric enzyme by reversible binding of superoxide (O2^–) (k6) or from the ferrous enzyme by reversible binding of dioxygen (O2) (k7). […]
# (§2) Firstly we investigated compound 10. […] Compound I reduction with compound 10 was measured at 423 nm. […]
# EPO Compound II = tested on: T3, EPO Compound II; assay: Sequential-mixing stopped-flow: reaction/transition of EPO Compound II with inhibitors; type: biochemical, human; conditions: pH 7.0, 25 °C; for apparent second-order rate constant for Compound II reduction (k4): 100 mM phosphate buffer
# T3 construct: Eosinophil peroxidase was purified from human white blood cells to a purity index (A413/A280) of at least 1.0; from tissue; host or cells: human white blood cells
# Procedure: as §1, with “repeats. […]” for “repeats.”
# as §2
# [2] = tested on: dextran sulfate-induced model of ulcerative colitis; parameters: method as in PMID 15100311; conditions: wild-type mice; cited from earlier work
# [3] = training and test set compounds of the pharmacophore model, read-out: EPO IC50
# [4] = as stated in text (abstract, conclusion), read-out: IC50
# [5] = Table 3, 20 nM EPO, 100 mM bromide, 100 µM H2O2, pH 7.0, read-out: IC50 value
# [6] = Table 4, 20 nM EPO, 100 mM bromide, 100 µM H2O2, pH 7.0, read-out: IC50 value
# T1 sequence (P11678 251-715 limits assumed): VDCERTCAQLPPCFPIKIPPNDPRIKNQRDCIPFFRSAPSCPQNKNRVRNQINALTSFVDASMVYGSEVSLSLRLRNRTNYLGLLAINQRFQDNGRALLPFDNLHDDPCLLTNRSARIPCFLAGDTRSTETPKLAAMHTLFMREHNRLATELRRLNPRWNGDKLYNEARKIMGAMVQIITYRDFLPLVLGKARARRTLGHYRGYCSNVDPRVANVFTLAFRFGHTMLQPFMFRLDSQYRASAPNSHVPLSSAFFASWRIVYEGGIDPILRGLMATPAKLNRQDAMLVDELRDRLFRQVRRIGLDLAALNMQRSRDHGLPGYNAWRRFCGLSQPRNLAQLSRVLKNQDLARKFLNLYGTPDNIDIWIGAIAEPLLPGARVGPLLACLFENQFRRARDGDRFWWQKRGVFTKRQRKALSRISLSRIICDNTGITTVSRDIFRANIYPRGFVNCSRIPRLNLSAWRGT
# T1 sequence (P11678 140-250 limits assumed): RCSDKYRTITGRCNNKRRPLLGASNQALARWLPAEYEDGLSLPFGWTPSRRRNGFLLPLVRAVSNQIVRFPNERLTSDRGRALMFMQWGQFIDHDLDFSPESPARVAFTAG
"IC50 [1, 3]","IC50 [1, 6]",SMILES,further results
,2900 ± 100 nM,"NNC(=O)CNc1ccccc1 [Compound 14, PAAH]",
,2270 ± 90 nM,"Cc1ccc(NCC(=O)NN)cc1 [Compound 15, 4-Methyl-PAAH]",
,172 ± 30 nM,"NNC(=O)CNc1ccc(F)cc1 [Compound 16, 4-Fluoro-PAAH]",
,823 ± 80 nM,"NNC(=O)CNc1ccc(Br)cc1 [Compound 17, 4-Bromo-PAAH]",
,290 ± 20 nM,"NNC(=O)CNc1ccc(I)cc1 [Compound 18, 4-Iodo-PAAH]",
,10 ± 5 nM,"NNC(=O)CNc1ccccc1F [Compound 19, 2-[(2-fluorophenyl)amino]-aceto-hydrazide]","IC50 [1, 4]: 10 nM"
,20 ± 6 nM,"NNC(=O)CNc1ccc(F)cc1F [Compound 20, 2,4-di Fluoro-PAAH]",
,34 ± 5 nM,"NNC(=O)CNc1ccc(F)c(Cl)c1 [Compound 21, 3-Chloro-4-fluoro-PAAH]",
,910 ± 40 nM,"NNC(=O)CNc1ccccc1Cl [Compound 22, 2-Chloro-PAAH]",
,823 ± 60 nM,"NNC(=O)CNc1cccc(Br)c1 [Compound 23, 3-Bromo-PAAH]",

# More lines, now with the values behind:
SMILES,"IC50 [1, 3]","IC50 [1, 6]",further results
"NNC(=O)c1nn(-c2ccccc2C(F)(F)F)cc1O [Compound 1, reference compound]",50 nM,,
"Cn1c(=O)[nH]c(=O)c2c1nc(NCCCO)n2CCO [Compound 2, reference compound]",120 nM,,
"NNC(=O)c1ccccc1O [Compound 3, reference compound]",75 nM,,
"NNC(=O)c1nn(-c2ccccc2)cc1O [Compound 4, reference compound]",420 nM,,
"NNc1cc(Cl)ccc1[N+](=O)[O-] [Compound 5, reference compound]",770 nM,,
"CC/N=c1/scc(-c2ccc(O)c(C(N)=O)c2)n1CC [Compound 6, reference compound]",980 nM,,
"C=CCNc1nc2c(c(=O)[nH]c(=O)n2C)n1CC(O)CO (stereo not shown) [Compound 7, reference compound]",1050 nM,,
"COc1ccc2[nH]cc(CCNC(C)=O)c2c1 [Compound 8, reference compound]",2900 nM,,
"NNC(=O)c1ccc(O)cc1O [Compound 9, reference compound]",3520 nM,,
"NNC(=O)CNc1ccc(Cl)cc1 [Compound 10, 2-[(4-chlorophenyl)amino]-acetohydrazide]",,,"IC50 [1, 4]: 21 nM; apparent second-order rate constant for Compound I reduction (k3) (EPO Compound I): 9.2e+06 M⁻¹ s⁻¹; type of inhibition (reversible / irreversible) (EPO Compound I): irreversible inhibitor; rate constant for transition Compound II - Compound III (EPO Compound II; independent of inhibitor concentration): ~1.2 s⁻¹"
"O=C(O)CNc1ccc(Cl)cc1 [Compound 11, 2-[(4-chlorophenyl)amino]-acetic acid]",,,"IC50 [1, 5]: 205 ± 30 nM; apparent second-order rate constant for Compound I reduction (k3) (EPO Compound I): 6.9e+06 M⁻¹ s⁻¹; type of inhibition (reversible / irreversible) (EPO Compound I): reversible inhibitor; apparent second-order rate constant for Compound II reduction (k4) (EPO Compound II): 11000 M⁻¹ s⁻¹"
"NNC(=O)CSc1ccc(Cl)cc1 [Compound 12, 2-(4-chlorophenyl) thio-acetohydrazide]",,,apparent second-order rate constant for Compound II reduction (k4) (EPO Compound II): 140000 M⁻¹ s⁻¹
"NNC(=O)COc1ccc(Cl)cc1 [Compound 13, 2-(4-chlorophenoxy)-aceto-hydrazide]",,,"IC50 [1, 5]: 4900 ± 100 nM"
Oc1cccc(O)c1 [resorcinol],,,"disease activity parameters (weight loss, colon shrinkage, colonic bleeding) [2]: diminished"
